Assay results: article PMC3489161 (Pharmaceutical research, 2011)
pIC50: −log10 of the molar value. Several values for one entry are separate records, joined by “and”; a condition that tells them apart may be missing. Identical values can stand only once. Entries after “also recorded” stand apart in the source; their conditions may differ.

Assays:
[1] = 14C-lapatinib distribution after intravenous dosing; format: in vivo, mice; conditions: 10 mg/kg i.v., 30 min
[2] = 14C-lapatinib radiochemical integrity in plasma and tissues by HPLC; format: in vivo, mice
[3] = test system: 231-BR-HER2 lapatinib-treated lines and 231-BR-HER2 non-treated lines; assay: Cell viability; format: cell-based, human; conditions: 8 or 10 μM lapatinib, 72 hours
[4] = test system: 231-BR-HER2 lapatinib-treated lines and 231-BR-HER2 non-treated lines; assay: Clonogenic assay of ex vivo cultures; format: cell-based, human; conditions: 4 μM lapatinib, stained on day 12
HER2 = assay: Western blot of HER2 expression in ex vivo cultures; format: cell-based, human; conditions: 100 mg/kg p.o. twice daily for 24 days
[5] = female, NuNu, mouse, in vivo
[6] = due to active efflux transport at the BBB; cited from earlier work
231-BR-HER2 = conditions: read-out: IC50 for inhibition of 231-BR-HER2 proliferation in vitro; cited from earlier work
[7] = test system: brain metastases of HER2+ breast cancer; conditions: monotherapy; cited from earlier work
HER2+ brain metastases = conditions: cited from earlier work
[8] = mice; cited from earlier work
[9] = cited from earlier work

CS(=O)(=O)CCNCc1ccc(-c2ccc3ncnc(Nc4ccc(OCc5cccc(F)c5)c(Cl)c4)c3c2)o1 [lapatinib, N-{3-chloro-4-[(3-fluorobenzyl)oxy]phenyl}-6-[5-({[2-(methylsulfonyl)ethyl]amino}methyl)-2-furyl]-4-quinazolinamine]
Average brain metastasis concentration less than in peripheral tissues [1]: 1-2 orders of magnitude
Plasma 14C tracer confirmed as intact 14C-lapatinib ([2]; 30 min after 10 mg/kg i.v.): > 98%
Tracer intact in plasma and tissues by HPLC ([2]; 2 hours after oral administration, 100 mg/kg): > 92%
Sensitivity of ex vivo cell lines to lapatinib, viability by MTT [3]: sensitive to lapatinib inhibition; also recorded: remain sensitive to lapatinib in vitro
Inhibitory effect in clonogenic assays [4]: comparable between lapatinib- and vehicle-treated cultures
HER2 expression throughout in vivo treatment and ex vivo culture (HER2): maintained
Concentration in some brain metastases as % of that in peripheral lesions [5]: ~50%
Share of brain metastases with elevated 14C-lapatinib delivery [5]: > 85%
Calculated % dose to brain ([5]; po, 100 mg/kg): 0.0025%
Brain uptake as % of plasma [6]: < 10%
pIC50 (231-BR-HER2): 5.10
Patients achieving an objective response [7]: 6%
Patients experiencing a >20% reduction in lesion volume [7]: 21%
Reduction in formation/number of large brain metastases (HER2+ brain metastases; mice, same dose and tumor model): ~50% and 50-53%
Number of micrometastases (HER2+ brain metastases; mice): no change
Extent of phosphorylated HER2 staining within HER2+ brain metastases (HER2+ brain metastases; treatment initiated early): decreased
Plasma half-life [8]: 4 to 6 h
Volume of distribution [9]: 9.5 L/kg
